The subject of data set [1] is sebaceous glands in the ears of male Syrian hamsters. Particulars: topical application, Malloy, V. L. et al. (1989); cited from earlier work.
The next data set deals with interleukins. The following applies: Muller, K. et al. (1988); cited from earlier work.
A further data set concerns cells. The following applies: Abe, E. et al. (1981); cited from earlier work.
The subject of data set [2] is U937 human histiocytic leukemia cells. As to the kind of experiment: antiproliferative effect in U937 human histiocytic leukemia cells relative to 1α,25(OH)2 D3. Particulars: number greater than 1 = higher antiproliferative activity. Format: cell-based. Here is the method: ^a This test determines the antiproliferative effect in U937 human
histiocytic leukemia cells of the compound relative to
1α,25(OH)2 D3. A number greater than 1 indicates a higher
antiproliferative activity of the compound in question when compared to
1α,25(OH)2 D3. The test was performed exactly as
described: L. Binderup and E. Bramm, Biochem. Pharmacol., 37, (1988)

A further data set deals with calcium metabolism. The data set is described as follows: calciuric effect in rats relative to 1α,25(OH)2 D3 (calcium metabolism). The class given is in vivo. The following applies: number smaller than 1 = less change in calcium excretion. An excerpt: ^b This test determines the calciuric effect in rats of the compound
relative to 1α,25(OH)2 D3. A number smaller than 1
indicates less change in calcium excretion of the compound in question
when compared to 1α,25(OH)2 D3. The test was, as above,
performed exactly as described: L. Binderup and E. Bramm, Biochem.

Data set [3] in a line: acid stability: approximate half life in conc. ^2 HCl/^2 H2 O in C^2 H3 CN determined by ^1 H NMR. Particulars: dcl/d2o in cd3cn; 10 μl conc. ^2 HCl/^2 H2 O in C^2 H3 CN (0.6 ml), 25° C., ^1 H NMR at 500 MHz. The class given is physicochemical. Here is the method: | ^c In this test, the compound was treated with a mixture of 10 μl | conc. ^2 HCl/^2 H2 O in C^2 H3 CN (0.6 ml) at | 25° C. and the approximate half life was determined by ^1 H NM | at 500 MHz.

SMILES strings stand for the structures. Some results are limits rather than exact numbers.

For `C=C1/C(=C\C=C2/CCC[C@]3(C)[C@@H]([C@H](C)CCCC(C)(C)O)CC[C@@H]23)C[C@@H](O)C[C@@H]1O` [1,25(OH)2 D3, 1α,25-dihydroxy-vitamin D3], the “size of sebaceous glands” value in data set [1] was “reduces the size of sebaceous glands”. The “effects and/or production of interleukins” value in the data set on interleukins was “influences the effects and/or production of interleukins”. Further, the “cell differentiation and proliferation” value in the data set with cells is “able to stimulate the differentiation of cells and inhibit excessive cell proliferation”.

As for `C=C1/C(=C\C=C2/CCC[C@]3(C)[C@@H]([C@H](C)/C=C/[C@@H](O)C4CC4)CC[C@@H]23)C[C@@H](O)C[C@@H]1O` [Calcipotriol], the “U937, inhib. of prolifer.” value in data set [2] is reported as 1. In addition, the “Calcium metabolism (calciuric effect)” value in the data set with calcium metabolism was 0.005.

`C=C1/C(=C\C=C2/CCC[C@]3(C)[C@@H]([C@H](C)/C=C/C#CC(O)(CC)CC)CC[C@@H]23)C[C@@H](O)C[C@@H]1O` [Compound 101, 1(S),3(R)-Dihydroxy-20(R)-(5-ethyl-5-hydroxy-hept-1(E)-en-3-yn-1-yl)-9,10-seco-pregna-5(Z),7(E),10(19)-triene]: the “U937, inhib. of prolifer.” value in data set [2] was found to be 89. In addition, the “Calcium metabolism (calciuric effect)” value in the data set on calcium metabolism was 0.2.

With `C=C1/C(=C\C=C2/CCC[C@]3(C)[C@@H]([C@@H](C)/C=C/C#CC(O)(CC)CC)CC[C@@H]23)C[C@@H](O)C[C@@H]1O` [Compound 102, 1(S),3(R)-Dihydroxy-20(S)-(5-ethyl-5-hydroxy-hept-1(E)-en-3-yn-1-yl)-9,10-seco-pregna-5(Z),7(E),10(19)-triene], the half-life in data set [3] is 15 to 30 min. Also, the “U937, inhib. of prolifer.” value in data set [2] came to 1.1. Besides, the “Calcium metabolism (calciuric effect)” value in the data set with calcium metabolism is given as 0.015.

`C=C1/C(=C\C=C2/CCC[C@]3(C)[C@@H]([C@H](C)/C=C/C=C/C(O)(CC)CC)CC[C@@H]23)C[C@@H](O)C[C@@H]1O` [EB1089, 1(S),3(R)-Dihydroxy-20(R)-(5'-ethyl-5'-hydroxy-hepta-1' (E),3'(E)-dien-1'-yl)-9,10-secopregna-5(Z),7(E), 10(19)-triene]: the half-life in data set [3] is less than 5 min. Besides, the “U937, inhib. of prolifer.” value in data set [2] came out at 68. Moreover, in the data set with calcium metabolism, the “Calcium metabolism (calciuric effect)” value stood at 0.4.
